{
  "source": "patent US20060104902A1",
  "about": "“Method of preselection patients for anti-VEGF, anti-HIF-1 or anti-thioredoxin therapy” (priority 2004, published 2006)",
  "key": {"HT-29 xenografts": {"system": "HT-29 xenografts", "conditions": "up to three hours post-treatment; cited from earlier work"}, "human tumor xenografts": {"system": "human tumor xenografts", "conditions": "cited from earlier work"}, "HT-29 tumor xenografts": {"system": "HT-29 tumor xenografts", "assay": "DCE-MRI with Gd-BSA: tumor vascular permeability and vascular volume fraction", "type": "in vivo, SCID mice"}, "mouse VEGF (mVEGF)": {"system": "mouse VEGF (mVEGF)", "assay": "Mouse VEGF ELISA in tumor and plasma of HT-29 xenograft mice after PX-12", "type": "in vivo, SCID mice", "description": "(§1) FIG. 12. Human VEGF levels (pg/μg protein) in HT-29 xenografts, and VEGF levels (pg/ml) in plasma after treatment with PX-12, 25 mg/kg ip (n=4 mice per time point).\n(§2) VEGF detection. Plasma was collected into EDTA tubes and tumors were removed and immediately snap frozen in liquid nitrogen. Tumors were then placed in buffer (10 mM Tris/HCl pH 7.4, and 100 mM NaCl) and homogenized using a PowerGen 125, Fisher Scientific, Pittsburgh, Pa. The suspension was then centrifuged twice at 8,000×g at 4° C. for 15 min. Protein was quantitated in supernatant using the Pierce BCA assay. VEGF levels were quantitated in plasma and tumor lysates using both human (hVEGF) and mouse VEGF […] ELISAs (R&D systems, Minneapolis, Minn.), according the manufactures' instructions.\n(§3) This example illustrates the effects of PX-12 on plasma and tumor VEGF levels, as measured by ELISA assays. In these xenografts, hVEGF is derived from the tumor and mVEGF from the host vasculature and stromal tissue, resulting in considerably higher hVEGF than mVEGF in the tumor. Although the endothelium is mouse derived, hVEGF inhibition in xenograft models has been reported to cause obliteration of the host tumor vasculature, implying that hVEGF is active at mouse VEGF receptors VEGFRI (Flt-i) and VEGFR2 (KDR). Therefore, levels of both mouse and human VEGF were measured in the tumor and plasma samples collected.\nSome tumors are reported to secrete VEGF into the plasma which can then act on endothelial cells in a paracrine manner or on tumor cells in an autocrine loop if the tumor expresses the VEGF receptors VEGFRI or VEGFR2. Plasma hVEGF expression was too low to be detected in the plasma from the HT-29 xenografts."}, "advanced malignancies": {"system": "advanced malignancies", "conditions": "cited from earlier work"}, "human VEGF (hVEGF)": {"system": "human VEGF (hVEGF)", "assay": "Human VEGF ELISA in HT-29 xenograft tumors after PX-12", "type": "in vivo, SCID mice", "conditions": "PX-12 25 mg/kg ip", "description": "as §1, §2, §3"}, "Trx-1": {"biological_target": "T1, Trx-1 (Homo sapiens, UniProt P10599)", "T1 sequence (P10599 1-105)": "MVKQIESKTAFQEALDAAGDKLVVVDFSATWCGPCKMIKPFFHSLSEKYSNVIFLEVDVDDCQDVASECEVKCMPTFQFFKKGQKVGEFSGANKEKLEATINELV", "conditions": "cited from earlier work"}, "current tumor model": {"system": "current tumor model", "conditions": "by 24 h post-treatment; cited from earlier work"}, "hypoxic cells": {"system": "hypoxic cells", "conditions": "cited from earlier work"}},
  "data": [
    {"compound": "COc1ccc(/C=C\\c2cc(OC)c(OC)c(OC)c2)cc1OP(=O)(O)O", "note": "[CA4P, combretastatin A4 phosphate]", "values": [
      {"measurement": "tumor perfusion", "setting": "HT-29 xenografts", "result": "only a small decrease"}
    ]},
    {"compound": "Cc1ccc2c(=O)c3cccc(CC(=O)O)c3oc2c1C", "note": "[DMXAA]", "values": [
      {"measurement": "tumor perfusion", "setting": "HT-29 xenografts", "result": "considerably decreased"}
    ]},
    {"compound": "CCC(C)SSc1ncc[nH]1", "note": "(stereo not shown) [PX-12, 1-methylpropyl 2-imidazolyl disulfide]", "values": [
      {"measurement": "in vivo antitumor activity", "setting": "human tumor xenografts; human tumor xenografts in SCID mice", "result": "in vivo antitumor activity"},
      {"measurement": "expression of HIF 1α and VEGF and microvessel density", "setting": "human tumor xenografts; xenograft tumors", "result": "significant decreases"},
      {"measurement": "mean reduction in permeability", "setting": "HT-29 tumor xenografts; 12 hours after PX-12 treatment", "result": 59.2, "unit": "%"},
      {"measurement": "mean reduction in permeability", "setting": "HT-29 tumor xenografts; 24 h post-treatment with PX-12", "result": 51.6, "unit": "%"},
      {"measurement": "change in permeability (return to control values)", "setting": "HT-29 tumor xenografts; 48 hours after PX-12, not significant", "result": "+3.4±17.6%"},
      {"measurement": "vascular volume fraction of the tumor, control vs treated", "setting": "HT-29 tumor xenografts; any time point (2-48 h) after PX-12", "result": "not significantly modified"},
      {"measurement": "mean reduction in tumor blood vessel permeability vs untreated tumors", "setting": "HT-29 tumor xenografts; within 2 hours after PX-12 injection", "result": 63.4, "unit": "%"},
      {"measurement": "mouse plasma VEGF levels", "setting": "mouse VEGF (mVEGF); 2 hours post treatment, PX-12 25 mg/kg ip", "result": "showed a decrease"},
      {"measurement": "mouse VEGF in plasma", "setting": "mouse VEGF (mVEGF); after 24 h of PX-12 treatment, 25 mg/kg ip, P<0.02", "result": "significant decrease"},
      {"measurement": "mouse VEGF in tumor", "setting": "mouse VEGF (mVEGF); starting at 2 h, not statistically significant at any time point, PX-12 25 mg/kg ip", "result": "only a small decrease"},
      {"measurement": "circulating levels of VEGF in patients", "setting": "advanced malignancies; as soon as 4 hours post drug administration", "result": "decrease"},
      {"measurement": "antitumor activity in phase I study", "setting": "advanced malignancies; patients with advanced malignancies", "result": "revealed antitumor activity"},
      {"measurement": "tumor VEGF levels", "setting": "human VEGF (hVEGF); 2 or 12 hours post-treatment", "result": "no significant change"},
      {"measurement": "hVEGF levels within the tumors", "setting": "human VEGF (hVEGF); after 24 hours of treatment", "result": "significant decrease"},
      {"measurement": "concentrations at which active as a Trx-1 inhibitor", "setting": "Trx-1", "result": "submicromolar"}
    ]},
    {"compound": "Cc1[nH]c(/C=C2\\C(=O)Nc3ccccc32)c(C)c1CCC(=O)O", "note": "[SU6668]", "values": [
      {"measurement": "fractional plasma volume", "setting": "current tumor model", "result": "decrease"}
    ]},
    {"compound": "C[N+](C)([O-])CCCNc1c2ccccc2nc2cccc([N+](=O)[O-])c12", "note": "[aliphatic N-oxide of nitacrine]", "values": [
      {"measurement": "selectivity for hypoxic cells", "setting": "hypoxic cells", "result": "approximately 1500 fold"}
    ]},
    {"compound": "Avastin: human anti-VEGF antibody Avastin (Bevacizumab, Genentech) [reference compound]", "values": [
      {"measurement": "vascular volume fraction VVf (%)", "setting": "HT-29 tumor xenografts; 1 h post-Tx, HT-29, mean", "result": 4.4, "unit": "%"},
      {"measurement": "decrease in vascular volume fraction", "setting": "HT-29 tumor xenografts; one hour after injection, 20 μl/30 g i.v.", "result": 31.5, "unit": "%"},
      {"measurement": "decrease in vascular permeability", "setting": "HT-29 tumor xenografts; within an hour of injection, 20 μl/30 g i.v.", "result": 75, "unit": "%"}
    ]}
  ]
}
